Results: patent EP0193257A1, “Control of micro-organisms in water-containing compositions” (NIPA LABORATORIES, LTD., priority 1985, dated 1986)

What was measured:
Format in all cases: cell-based
Serratia marcescens [1] = experiment: Bactericidal effect in 27% sodium lauryl ether sulphate (challenge test)
Procedure: (§1) Sodium lauryl ether sulphate (SLES) is a commonly used anionic detergent, a major active component of shampoos, foam baths and general purpose cleaners. The bactericidal activity of some compounds covered by the general formula given above was evaluated at final levels of 0.10% (w/w) and 0. 15% (w/w) in a 27% active solution of SLES (confirmed as containing no other preservatives). The activity of these compounds was evaluated in comparison with 0.30% methyl-4-hydroxybenzoate and an unpreserved control sample.
(§2) The test organisms were three species of resistant Gram negative bacteria which had previously been isolated from contaminated detergent products. 20g portions of test solutions were inoculated with 0.1 ml pure culture of the test bacteria and the time taken to achieve a total lethal effect against each species was determined by sub-culture at regular intervals into sterile dilution media (containing preservative inact ivators) and then into sterile Nutrient Broth, which was incubated for 4 days at 32°C to determine the presence or absence of surviving bacteria.

Pseudomonas aeruginosa [2] = experiment: as above
Procedure: as §1, §2

Klebsiella oxytoca [3] = experiment: as above
Procedure: as §1, §2

[4] = system: mixed culture of 7 strains of Gram negative bacteria; experiment: Survivor plate count in shampoo formulation after challenge; details: shampoo with 0.05% citric acid alone (Control 1)
Procedure: A shampoo formulation was prepared to the following formula: […]
Various additions were made to portions of this shampoo in sterile bottles under aseptic conditions, as follows: • 1. 0.20% of 30% DCHB in propylene glycol (0.06% active DCHB) • 2. 0.20% of 30% DCHB in propylene glycol + 0.05% citric acid • 3. 0.05% citric acid (control 1) • 4. No addition (control 2)
Each of these systems was inoculated with a mixed culture of 7 strains of Gram negative bacteria, at an initial inocullum level of 9.0x10^7 colony forming units per g. At 30 mins, 1 hour, 2 hours, 6 hours, 24 hours and 7 days after inoculation the total number of survivors in each sample portion were determined by serial dilution and plate counting; with the following results: […]

Serratia marcescens [5] = experiment: Microbial challenge test in cosmetic cream
Procedure: (§3) Emulsions are susceptible to contamination and spoilage by-a wide range of micro-organisms. 3.5-Dibromo-4-hydroxybenzaldehyde (DBHB), as a non-limiting illustration of the invention, was evaluated in a typical cosmetic cream for microbiocidal efficacy. The cosmetic cream had the following formulation: […]
(§4) This cream was prepared by heating the oil and water phases to 70°C, mixing and stirring until cool. The DBHB was incorporated into the cream at final levels of 0.05%, 0.10% and 0.15% by dissolving into the emulsion components at the heating stage. A microbial challenge test was performed to determine the micro-biocidal activity of the test product. The following test organisms were inoculated in pure culture into portions of sterile cream samples and the time taken to achieve a total lethal effect was determined by regular sub-culture into recovery media (with preservative inactivators) which were incubated and observed for growth of survivors.

Staphylococcus aureus = experiment: Microbial challenge test in cosmetic cream
Procedure: as §3, §4

Pencicillium expansum = experiment: Microbial challenge test in cosmetic cream
Procedure: as §3, §4

Pseudomonas putida [6] = experiment: Microbial challenge test in cosmetic cream
Procedure: as §3, §4

Pseudomonas aeruginosa [7] = experiment: Microbial challenge test in cosmetic cream
Procedure: as §3, §4

Candida albicans = experiment: Microbial challenge test in cosmetic cream
Procedure: as §3, §4

Escherichia coli [8] = experiment: Microbial challenge test in cosmetic cream
Procedure: as §3, §4

Serratia marcescens [9] = experiment: Challenge test in Polysorbate 80 solutions
Procedure: (§5) Many antimicrobial preservatives are inactivated by polyalkoxylated nonionic emulsifiers which are widely used in emulsification of cosmetic, pharmaceutical and industrial emulsions. […] Normal use levels of Polysorbate 80 are 1-5%.
(§6) 3,5-Dibromo-4-hydroxybenzaldehyde was evaluated at 0.05%, 0.10% and 0.15% in 5% and 10% Polysorbate 80 solutions by a challenge test of the type described in Example 2.

Pseudomonas putida [10] = experiment: Challenge test in Polysorbate 80 solutions
Procedure: as §5, §6

Pseudomonas aeruginosa [11] = experiment: Challenge test in Polysorbate 80 solutions
Procedure: as §5, §6

Klebsiella oxytoca [12] = experiment: Challenge test in Polysorbate 80 solutions
Procedure: as §5, §6

Escherichia coli [13] = experiment: Challenge test in Polysorbate 80 solutions
Procedure: as §5, §6

[14] = 0.05%, Polysorbate 80 level 10%
[15] = 0.10%, Polysorbate 80 level 10%
[16] = 0.15%, Polysorbate 80 level 10%

In the case of `COC(=O)c1ccc(O)cc1` [Methyl-4-hydroxybenzoate, reference compound], the “Time to achieve total lethal effect against: S marcescens” value (Serratia marcescens [1]; 0.3% in 27% SLES) was greater than 28 days, the “Time to achieve total lethal effect against: P aeruginosa” value (Pseudomonas aeruginosa [2]; 0.3% in 27% SLES) was 336 h and the “Time to achieve total lethal effect against: K oxytoca” value (Klebsiella oxytoca [3]; 0.3% in 27% SLES) was 504 h.
In the case of `O=Cc1ccc(O)c(Cl)c1` [3-Chloro-4-hydroxybenzaldehyde], the “Time to achieve total lethal effect against: S marcescens” value (Serratia marcescens [1]; 0.10% in 27% SLES) was 1 days, the “Time to achieve total lethal effect against: S marcescens” value (Serratia marcescens [1]; 0.15% in 27% SLES) was 0.25 days and the “Time to achieve total lethal effect against: P aeruginosa” value (Pseudomonas aeruginosa [2]; 0.10% in 27% SLES) was 3 h. The “Time to achieve total lethal effect against: P aeruginosa” value (Pseudomonas aeruginosa [2]; 0.15% in 27% SLES) was 1 h, the “Time to achieve total lethal effect against: K oxytoca” value (Klebsiella oxytoca [3]; 0.10% in 27% SLES) was 6 h and the “Time to achieve total lethal effect against: K oxytoca” value (Klebsiella oxytoca [3]; 0.15% in 27% SLES) was 1 h.
With `O=C(O)CC(O)(CC(=O)O)C(=O)O` [citric acid, reference compound] the “Mixed culture - colony forming units/g after: 30 mins” value [4] was 9.0x10^7 colony forming units/g, the “Mixed culture - colony forming units/g after: 1 hour” value [4] was 3.5x10^7 colony forming units/g and the “Mixed culture - colony forming units/g after: 2 hours” value [4] was 6.5x10^7 colony forming units/g. For the same compound, the “Mixed culture - colony forming units/g after: 6 hours” value [4] was >1x10^8 colony forming units/g, the “Mixed culture - colony forming units/g after: 24 hours” value [4] was >1x10^8 colony forming units/g and the “Mixed culture - colony forming units/g after: 7 days” value [4] was >1x10^8 colony forming units/g.
`Cc1cc(C=O)cc(C)c1O` [3,5-Dimethyl-4-hydroxybenzaldehyde, 3,5,-Dimethyl-4-hydroxybenzaldehyde] was tested, and the “Time to achieve total lethal effect against: S marcescens” value (Serratia marcescens [1]; 0.10% in 27% SLES) was 1 days, the “Time to achieve total lethal effect against: S marcescens” value (Serratia marcescens [1]; 0.15% in 27% SLES) was 0.12 days and the “Time to achieve total lethal effect against: P aeruginosa” value (Pseudomonas aeruginosa [2]; 0.10% in 27% SLES) was 1 hour hours. For the same compound, the “Time to achieve total lethal effect against: P aeruginosa” value (Pseudomonas aeruginosa [2]; 0.15% in 27% SLES) was less than 1 h, the “Time to achieve total lethal effect against: K oxytoca” value (Klebsiella oxytoca [3]; 0.10% in 27% SLES) was 3 h and the “Time to achieve total lethal effect against: K oxytoca” value (Klebsiella oxytoca [3]; 0.15% in 27% SLES) was less than 1 h.
For `O=Cc1cc(Br)c(O)c(Br)c1` [DBHB, 3,5-Dibromo-4-hydroxybenzaldehyde], the “Time taken to achieve total lethal effect against: S marcescens” value (from here on “Time taken … S marcescens”) (Serratia marcescens [5]; 0.05% in cosmetic cream) was 3 h, the “Time taken … S marcescens” value (Serratia marcescens [5]; 0.10% in cosmetic cream) was 3 h and the “Time taken … S marcescens” value (Serratia marcescens [5]; 0.15% in cosmetic cream) was 1 h. For the same compound, the “Time taken to achieve total lethal effect against: S aureus” value (“Time taken … S aureus” below) (Staphylococcus aureus; 0.05% in cosmetic cream) was 1 h, the “Time taken … S aureus” value (Staphylococcus aureus; 0.10% in cosmetic cream) was less than 1 h and the “Time taken … S aureus” value (Staphylococcus aureus; 0.15% in cosmetic cream) was less than 1 h. For the same compound, the “Time taken to achieve total lethal effect against: Pen expansum” value (“Time taken … Pen expansum” for short) (Pencicillium expansum; 0.05% in cosmetic cream) was 4 days, the “Time taken … Pen expansum” value (Pencicillium expansum; 0.10% in cosmetic cream) was 2 days and the “Time taken … Pen expansum” value (Pencicillium expansum; 0.15% in cosmetic cream) was 1 days. For the same compound, the “Time taken to achieve total lethal effect against: P putida” value (from here on “Time taken … P putida”) (Pseudomonas putida [6]; 0.05% in cosmetic cream) was 3 h, the “Time taken … P putida” value (Pseudomonas putida [6]; 0.10% in cosmetic cream) was less than 1 h and the “Time taken … P putida” value (Pseudomonas putida [6]; 0.15% in cosmetic cream) was less than 1 h. For the same compound, the “Time taken to achieve total lethal effect against: P aeruginosa” value (“Time taken … P aeruginosa” below) (Pseudomonas aeruginosa [7]; 0.05% in cosmetic cream) was 3 h, the “Time taken … P aeruginosa” value (Pseudomonas aeruginosa [7]; 0.10% in cosmetic cream) was 3 h and the “Time taken … P aeruginosa” value (Pseudomonas aeruginosa [7]; 0.15% in cosmetic cream) was less than 1 h. For the same compound, the “Time taken to achieve total lethal effect against: C albicans” value (shortened to “Time taken … C albicans”) (Candida albicans; 0.05% in cosmetic cream) was 3 h, the “Time taken … C albicans” value (Candida albicans; 0.10% in cosmetic cream) was less than 1 h and the “Time taken … C albicans” value (Candida albicans; 0.15% in cosmetic cream) was less than 1 h. For the same compound, the “Time taken to achieve total lethal effect against: E coli” value (“Time taken … E coli” for short) (Escherichia coli [8]; 0.05% in cosmetic cream) was 3 h, the “Time taken … E coli” value (Escherichia coli [8]; 0.10% in cosmetic cream) was 3 h and the “Time taken … E coli” value (Escherichia coli [8]; 0.15% in cosmetic cream) was less than 1 h. The “Time to achieve total lethal effect against: S marcescens” value (Serratia marcescens [1]; 0.10% in 27% SLES) was 0.12 days, the “Time to achieve total lethal effect against: S marcescens” value (Serratia marcescens [1]; 0.15% in 27% SLES) was less than 1 hour hours and the “Time to achieve total lethal effect against: P aeruginosa” value (Pseudomonas aeruginosa [2]; 0.10% in 27% SLES) was 1 hour hours. The “Time to achieve total lethal effect against: P aeruginosa” value (Pseudomonas aeruginosa [2]; 0.15% in 27% SLES) was less than 1 h, the “Time to achieve total lethal effect against: K oxytoca” value (Klebsiella oxytoca [3]; 0.10% in 27% SLES) was 3 h and the “Time to achieve total lethal effect against: K oxytoca” value (Klebsiella oxytoca [3]; 0.15% in 27% SLES) was less than 1 h. The “Time taken … S marcescens” value (Serratia marcescens [9]; 0.05%, Polysorbate 80 level 5%) was 24 h, the “Time taken … S marcescens” value (Serratia marcescens [9]; [14]) was 24 h and the “Time taken … S marcescens” value (Serratia marcescens [9]; 0.10%, Polysorbate 80 level 5%) was 1 h. The “Time taken … S marcescens” value (Serratia marcescens [9]; [15]) was 3 h, the “Time taken … S marcescens” value (Serratia marcescens [9]; 0.15%, Polysorbate 80 level 5%) was 1 h and the “Time taken … S marcescens” value (Serratia marcescens [9]; [16]) was 1 h. The “Time taken … P putida” value (Pseudomonas putida [10]; 0.05%, Polysorbate 80 level 5%) was 3 h, the “Time taken … P putida” value (Pseudomonas putida [10]; [14]) was 1 h and the “Time taken … P putida” value (Pseudomonas putida [10]; 0.10%, Polysorbate 80 level 5%) was less than 1 h. For the same compound, the “Time taken … P putida” value (Pseudomonas putida [10]; [15]) was 1 h, the “Time taken … P putida” value (Pseudomonas putida [10]; 0.15%, Polysorbate 80 level 5%) was less than 1 h and the “Time taken … P putida” value (Pseudomonas putida [10]; [16]) was less than 1 h. For the same compound, the “Time taken … P aeruginosa” value (Pseudomonas aeruginosa [11]; 0.05%, Polysorbate 80 level 5%) was 3 h, the “Time taken … P aeruginosa” value (Pseudomonas aeruginosa [11]; [14]) was 24 h and the “Time taken … P aeruginosa” value (Pseudomonas aeruginosa [11]; 0.10%, Polysorbate 80 level 5%) was less than 1 h. The “Time taken … P aeruginosa” value (Pseudomonas aeruginosa [11]; [15]) was 3 h, the “Time taken … P aeruginosa” value (Pseudomonas aeruginosa [11]; 0.15%, Polysorbate 80 level 5%) was less than 1 h and the “Time taken … P aeruginosa” value (Pseudomonas aeruginosa [11]; [16]) was less than 1 h. The “Time taken to achieve total lethal effect against: K oxytoca” value (from here on “Time taken … K oxytoca”) (Klebsiella oxytoca [12]; 0.05%, Polysorbate 80 level 5%) was 6 h, the “Time taken … K oxytoca” value (Klebsiella oxytoca [12]; [14]) was 3 h and the “Time taken … K oxytoca” value (Klebsiella oxytoca [12]; 0.10%, Polysorbate 80 level 5%) was 1 h. For the same compound, the “Time taken … K oxytoca” value (Klebsiella oxytoca [12]; [15]) was 1 h, the “Time taken … K oxytoca” value (Klebsiella oxytoca [12]; 0.15%, Polysorbate 80 level 5%) was less than 1 h and the “Time taken … K oxytoca” value (Klebsiella oxytoca [12]; [16]) was less than 1 h. For the same compound, the “Time taken … E coli” value (Escherichia coli [13]; 0.05%, Polysorbate 80 level 5%) was 6 h, the “Time taken … E coli” value (Escherichia coli [13]; [14]) was 3 h and the “Time taken … E coli” value (Escherichia coli [13]; 0.10%, Polysorbate 80 level 5%) was less than 1 h. The “Time taken … E coli” value (Escherichia coli [13]; [15]) was 1 h, the “Time taken … E coli” value (Escherichia coli [13]; 0.15%, Polysorbate 80 level 5%) was less than 1 h and the “Time taken … E coli” value (Escherichia coli [13]; [16]) was less than 1 h.
